pIC50: −log10 of the molar value. The source made the active and inactive calls. No rule for the calls is given here.

What is called IC50 is the concentration that inhibits the measured activity by half. Usually pIC50 stands for −log10 of the IC50, conventionally taken in molar units.

This test deals with luminescent cytotoxicity (cell viability) counter-screen. Kind of test: cytotoxicity of Gli-SUFU antagonist hits, dose response, cytotoxicity control for Gli-SUFU antagonist project, cell-based, luminescence, uHTS hits (AID 651569).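 Also: compound exposure lasted overnight before the viability readout.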
On to `CC(CC(=O)N1CCN(c2cccc(Cl)c2)CC1)S(=O)(=O)c1ccc2c(c1)NC(=O)CO2` (centres undefined), for which the IC50 is > 20 µM (inactive).
Consider `CC(C)(C)C1CCC(OC(=O)C[N+]2(C)CCCCC2)CC1` (centres undefined), for which the IC50 is > 20 µM (inactive).
Same read-out and setting: then `C(#Cc1ccccc1)C[N+]1(CC#Cc2cccc3ccccc23)CCCC1`, with > 20 µM (inactive); and `Cc1nc2ccccc2c2oc(C(=O)N3CCN(C4CCCCC4)CC3)cc12`, with > 20 µM (inactive).
The same measure, in the same setting: then `CCOC(=O)c1c(NC(=O)COc2ncnc3ccccc23)sc(C(C)=O)c1C`, with > 20 µM (inactive); and `Cn1nc(CC(=O)NCc2ccc(C(F)(F)F)cc2)c2ccccc2c1=O`, with > 20 µM (inactive); and `Cc1ccc(S(=O)(=O)NCCC2=CCCCC2)cc1C(N)=O`, with > 20 µM (inactive).
The same measure, in the same setting: then `Cc1csc2ncnc(NCCc3ccccn3)c12`, with > 20 µM (inactive).
On to `O=C(N[C@H]1C/C=C\C[C@@H](CC(=O)N(CCO)Cc2ccccc2)C(=O)NC[C@H](c2ccccc2)OC1=O)OCC1c2ccccc2-c2ccccc21`, for which the IC50 was > 20 µM (inactive).
Still for that read-out and setting: then `COc1ccc(OC)c(Cc2cnc3nc(N)nc(N)c3c2C)c1`, with > 20 µM (inactive).
On the same count and under the same terms, then `COc1ccc(NC(=S)N2CCC(Cc3ccccc3)CC2)cc1`, with > 20 µM (inactive); and `CC(=O)c1ccc(N2CCN(c3ccc(C(F)(F)F)cn3)CC2)cc1`, with > 20 µM (inactive).
For `CN1/C(=C\C=N\NC(=O)c2ccc(O)cc2)C(C)(C)c2ccccc21`, the pIC50 is 5.32.
In the case of `N=c1c(-c2nc3ccccc3[nH]2)cc(C(=O)c2ccco2)nn1-c1ccccc1`, the IC50 is > 20 µM (inactive).
Still for that read-out and setting: then `CC(C)(C)c1ccc(C(=O)NC(=S)Nc2ccc(N3CCOCC3)cc2)cc1`, with > 20 µM (inactive); and `O=C(Cc1ccc(Cl)cc1Cl)Nc1ccncc1`, with > 20 µM (inactive); and `C[n+]1c2n(c3ccccc31)N=C(c1ccc(-c3ccccc3)cc1)CS2`, with > 20 µM (inactive).
On the same count and under the same terms, then `c1ccc2c(c1)OCC(CNc1ncnc3sccc13)O2` (centres undefined), with > 20 µM (inactive).
Same read-out and setting: then `CC(C)C[C@H]1CN=C(N(C)C)N1CCCCc1ccccc1`, with > 20 µM (inactive).
In the case of `Cc1cc(-c2ccccc2)cc(-c2ccccc2)[n+]1C`, the IC50 is > 20 µM (inactive).
Turning to `O=C(/C=C/c1ccco1)Nc1ccc(-c2nc3ccccc3[nH]2)cc1`, the IC50 is > 20 µM (inactive).
On the same count and under the same terms, then `Cc1cc(C)c[n+](C(C)C(=O)c2ccc(-c3ccccc3)cc2)c1` (centres undefined), with > 20 µM (inactive).
On the same count and under the same terms, then `CCCCOCCCNc1ncnc2c1[nH]c1ccccc12`, with > 20 µM (inactive).
In the case of `CNc1ccccc1C(C)(C)c1cc(-c2cccc(Br)c2)no1`, the IC50 was > 20 µM (inactive).
The same measure, in the same setting: then `C[C@@H]1COC(=O)[C@H](NC(=O)OCC2c3ccccc3-c3ccccc32)C/C=C\C[C@@H](CC(=O)N[C@@H](CO)Cc2ccccc2)C(=O)N1`, with > 20 µM (inactive).
With `CC1CCN(Cc2c(C(=O)N/N=C/c3ccccc3O)nnn2-c2nonc2N)CC1`, the IC50 is > 20 µM (inactive).
The same measure, in the same setting: then `Cc1cc(NC(=O)CSc2nc3c([nH]c4ccccc43)c(=O)n2-c2ccccc2F)no1`, with > 20 µM (inactive).
Same read-out and setting: then `CC(C)CC(NC(=O)CCCNC(=O)CCC(=O)OC1O[C@H]2OC3(C)CC[C@H]4[C@H](C)CCC(C1C)C24OO3)C(=O)O` (some centres undefined), with > 20 µM (inactive); and `COC(=O)c1cc(S(=O)(=O)N2CCC(c3cc(OC)ccc3OC)C2)c[nH]1` (centres undefined), with > 20 µM (inactive); and `CC1=CC(C)C2(COC(c3ccc[n+](C)c3)OC2)C(C)C1` (centres undefined), with > 20 µM (inactive).
As to `CC(C)(C)[C@H]1COC(=O)[C@H](NC(=O)OCC2c3ccccc3-c3ccccc32)C/C=C\C[C@@H](CC(=O)N(CCO)Cc2ccccc2)C(=O)N1`, the IC50 was > 20 µM (inactive).
On to `CC[N+](CC)(CC#Cc1ccccc1)CC#Cc1ccccc1`, for which the IC50 was > 20 µM (inactive).
The same measure, in the same setting: then `COc1cccc(CN(C)C(=O)c2cc(COc3ccc4ncccc4c3)on2)c1`, with > 20 µM (inactive).
Turning to `CCNc1nc(CN2CCCCC2)nc2scc(-c3ccccc3)c12`, the pIC50 is 4.81.
With `Cc1ccc(OCCN2CCN(c3ncnc4sc(C)c(C)c34)CC2)cc1`, the IC50 was > 20 µM (inactive).
The same measure, in the same setting: then `COc1nnc(-c2ccc(N3CCCCC3)c(N)c2)c2ccccc12`, with > 20 µM (inactive).
In the case of `O=c1c2ccccc2sc2c(CO)ccc(NCCN3CCCCC3)c12`, the pIC50 was 4.72.
As for `COc1ccccc1CN(Cc1nc2ccccc2c(=O)[nH]1)S(=O)(=O)c1ccc(C)cc1`, the IC50 was > 20 µM (inactive).
Regarding `FC(F)(F)c1ccc(N2CCN(c3cc(-c4ccccc4)nc4ncnn34)CC2)nc1`, the IC50 was > 20 µM (inactive).
On the same count and under the same terms, then `O=C(c1cc2sccc2n1Cc1ccc(F)cc1)N1CCN(c2nc3ccccc3s2)CC1`, with > 20 µM (inactive); and `c1ccc(-c2c[n+]3c(n2-c2ccccc2)SCC3)cc1`, with > 20 µM (inactive).
As for `O=C(COC(=O)c1ccc2[nH]c3c(c2c1)CCCC3)Nc1ccccc1Cl`, the IC50 was > 20 µM (inactive).
Take `CCN(CC(=O)Nc1c(F)cccc1F)C(=O)c1cc(S(=O)(=O)N(CC)CC)ccc1N1CCCCC1`: the pIC50 is 5.04.
Turning to `Cc1nnsc1C(=O)Nc1ccc(S(=O)(=O)N2CCC(C)CC2)cc1`, the IC50 was > 20 µM (inactive).
On to `Cc1nn(Cc2noc(C(=O)NC3CCC(C)CC3)n2)c(C)c1Br` (centres undefined), for which the IC50 is > 20 µM (inactive).
Same read-out and setting: then `CC(C)C(=O)N1CCN(c2ccccc2NC(=O)COc2ccccc2)CC1`, with > 20 µM (inactive); and `c1ccc(C[n+]2cccc(-c3ccccc3)c2)cc1`, with > 20 µM (inactive).
Consider `NC(=O)c1ccccc1OCC(=O)N1CCC(Cc2ccccc2)CC1`, for which the IC50 is > 20 µM (inactive).
Still for that read-out and setting: then `CCCn1c(SCC(=O)Nc2nc(-c3ccc(OC)cc3)cs2)nc2c1c(=O)n(C)c(=O)n2C`, with > 20 µM (inactive).
As to `C/C(=N\Nc1ccc(Cl)nn1)c1ccccc1O`, the IC50 was > 20 µM (inactive).
The same measure, in the same setting: then `O=C(c1cnc(N2CCN(c3ccccn3)CC2)c2ccccc12)N1CCN(c2cccc(Cl)c2)CC1`, with > 20 µM (inactive).
`Cc1nc2ccccc2n1CC(=O)NC(C)C1CC2CCC1C2` (centres undefined): the IC50 is > 20 µM (inactive).
Still for that read-out and setting: then `O=C(Nc1ccncc1)c1ccc(-c2ccccc2)cc1`, with > 20 µM (inactive).
With `COc1cc(NS(=O)(=O)c2ccc(C)cc2C)cc(OC)c1OC`, the pIC50 is 4.80.
`COc1ccc(-c2nn(-c3ccccc3)cc2/C=N/NC(=O)c2ccc(Br)o2)cc1`: the IC50 is > 20 µM (inactive).
As to `O=C(Nc1ccc(C(F)(F)F)cc1)C1CCN(S(=O)(=O)c2ccc(N3CCCC3=O)cc2)CC1`, the IC50 was > 20 µM (inactive).
On the same count and under the same terms, then `Cc1c(C(C)C)c(=O)n(-c2ccc(S(=O)(=O)NCc3ccccc3)cc2)n1C`, with > 20 µM (inactive).
As for `Cc1cccnc1CN1CCN(C(=O)c2cc(COc3ccc4ncccc4c3)on2)CC1`, the IC50 was > 20 µM (inactive).
Turning to `CCOc1ccc2[nH]c3c(N4CCN(C(=O)c5ccco5)CC4)ncnc3c2c1`, the IC50 is > 20 µM (inactive).
`COc1cc2c(c(OC)c1OC)-c1ccc(N(C)CC(OC)OC)c(=O)cc1[C@@H](NC(C)=O)CC2`: the pIC50 is 4.97.
With `C[C@@H]1COC(=O)[C@@H](NC(=O)OCC2c3ccccc3-c3ccccc32)C/C=C\C[C@@H](CC(=O)N(CCO)Cc2ccccc2)C(=O)N1`, the IC50 was > 20 µM (inactive).
Same read-out and setting: then `CCOC(=O)c1ccc(NC(=O)Cn2cnc3cc(C)c(C)cc32)cc1`, with > 20 µM (inactive); and `O=C(Nc1ccccc1)C1=C[C@H](C2CCCCC2)C[C@H](OCCCCO)O1`, with > 20 µM (inactive).
In the case of `C/C(=N\NC(=O)C(=O)Nc1ccc(C)c(Cl)c1)c1ccncc1`, the IC50 was > 20 µM (inactive).
Turning to `CCc1ccccc1NC(=S)N=Nc1c(O)n(C)c2ccc(S(=O)(=O)N3CCOCC3)cc12`, the IC50 was > 20 µM (inactive).
Same read-out and setting: then `CCC(=O)c1ccc(OCC(O)Cn2c(C)nc3ccccc32)cc1` (centres undefined), with > 20 µM (inactive); and `CCCN(CCC)CCNC(=O)c1cc2c(=O)n(C)c3ccccc3c2n1C`, with > 20 µM (inactive).
Still for that read-out and setting: then `O=C(C[n+]1cc(-c2ccccc2)n2c1CCCCC2)c1ccc(Cl)cc1`, with > 20 µM (inactive); and `COC(=O)C1=C(c2cc3ccccc3o2)C[C@@H]2CC[C@H]1N2C(=O)N1CCC(C)CC1`, with > 20 µM (inactive); and `CN(Cc1ccc(OCC(O)CN2CCCCC2)cc1)Cc1ccnc2ccccc12` (centres undefined), with > 20 µM (inactive).
Turning to `CN(CCOc1ccc(Cl)cc1)C(=O)c1cccc(S(=O)(=O)N2CCN(c3ccc(F)cc3)CC2)c1`, the IC50 was > 20 µM (inactive).
Same read-out and setting: then `Cc1cc(N/N=C/c2ccc(O)cc2O)nc(-n2nc(C)cc2C)n1`, with > 20 µM (inactive); and `CCC(C(=O)NCCC(C)C)n1ccc2cc(S(=O)(=O)N3CCCCC3)ccc21` (centres undefined), with > 20 µM (inactive).
Consider `CCOC(CN=c1nc(N(C)C)ss1)OCC`, for which the negative logarithm of the IC50 (pIC50) was 4.73.
On to `CCOC(=O)N1CCN(C(=O)c2cc(COc3ccc4ncccc4c3)on2)CC1`, for which the IC50 is > 20 µM (inactive).
Consider `CC(C)(C)OC(=O)N1CCC(c2cc(-c3cccs3)n[nH]2)CC1`, for which the IC50 was > 20 µM (inactive).
As for `COc1ccc(Cn2c(-c3ccc(Cl)cc3)c[n+]3ccccc23)cc1`, the IC50 is > 20 µM (inactive).
For the compound `O=C1N/C(=C\c2ccc(O)cc2)C(O)=C1C=NCc1ccccc1`, the pIC50 is 5.36.
As for `O=C(Cn1cc(C(=O)C2CC2)c2ccccc21)Nc1ccccc1Cl`, the IC50 is > 20 µM (inactive).
The same measure, in the same setting: then `CCOc1ccc(NC(=S)NNc2ccnc3cc(Cl)ccc23)cc1`, with > 20 µM (inactive).
On the same count and under the same terms, then `O=c1c2ccccc2nc2n1C(CSCc1cccc(C(F)(F)F)c1)CS2` (centres undefined), with > 20 µM (inactive); and `CCCCCCCN1C2=NCCCN2c2ccccc21`, with > 20 µM (inactive).
With `COc1ccccc1N1CCN(c2ncc(C(=O)N3CCN(c4cccc(Cl)c4)CC3)c3ccccc23)CC1`, the IC50 is > 20 µM (inactive).
Same read-out and setting: then `CN1/C(=C\C=Nc2ccccc2)C(C)(C)c2ccccc21`, with > 20 µM (inactive).
